Experimental data taken from paper doi:10.1101/2021.10.07.463234v2 (biorxiv, 2021).
Where a name gives a salt, the structure may show the parent alone.

Target: SARS-CoV-2 Mac1 (Severe acute respiratory syndrome coronavirus 2, UniProt P0DTD1)
Assay: biochemical
Conditions: for inhibition at 100 µM: read-out: %inhibition; for %inhibition: 100 µM, inhibitor

Compound: Oc1c(I)cc(Cl)c2cccnc12 [Clioquinol]
- inhibition at 100 µM: 6.9%

Compound: CCC(=O)O[C@]1(C(=O)CCl)[C@@H](C)C[C@H]2[C@@H]3CCC4=CC(=O)C=C[C@]4(C)[C@@]3(F)[C@@H](O)C[C@@]21C [Clobetasol propionate]
- inhibition at 100 µM: 9.68%

Compound: Nc1nc(Cl)nc2c1ncn2[C@@H]1O[C@H](CO)[C@@H](O)[C@@H]1F [Clofarabine]
- inhibition at 100 µM: 44.7%

Compound: CC(C)/N=c1\cc2n(-c3ccc(Cl)cc3)c3ccccc3nc-2cc1Nc1ccc(Cl)cc1 [Clofazimine]
- inhibition at 100 µM: 5.33%

Compound: CC(C)(Oc1ccc(Cl)cc1)C(=O)O [Clofibric Acid]
- inhibition at 100 µM: 17.2%

Compound: CC(C)(C)CC(C)(C)c1ccc(O)c(Cc2ccc(Cl)cc2Cl)c1 [Clofoctol]
- inhibition at 100 µM: 0%

Compound: Clc1cccc(Cl)c1NC1=NCCN1 [Clonidine HCl]
- inhibition at 100 µM: 0%

Compound: Clc1ccc(C(OCCN2CCCCC2)c2ccccc2)cc1 (centres unmarked) [Cloperastine hydrochloride]
- inhibition at 100 µM: 5.64%

Compound: COC(=O)[C@H](c1ccccc1Cl)N1CCc2sccc2C1 [Clopidogrel]
- inhibition at 100 µM: 0%

Compound: Cc1nc(C)c(Cl)c(O)c1Cl [Clopidol]
- inhibition at 100 µM: 0.707%

Compound: CC(C)NCC(O)c1ccccc1Cl (centres unmarked) [Clorprenaline HCl]
- inhibition at 100 µM: 7.59%

Compound: Nc1cc(C(Cl)=C(Cl)Cl)c(S(N)(=O)=O)cc1S(N)(=O)=O [Clorsulon]
- inhibition at 100 µM: 7.3%

Compound: Cc1cc(C(C#N)c2ccc(Cl)cc2)c(Cl)cc1NC(=O)c1cc(I)cc(I)c1O (centres unmarked) [Closantel]
- %inhibition: 12.2%

Compound: Cc1onc(-c2ccccc2Cl)c1C(=O)N[C@@H]1C(=O)N2[C@@H]1SC(C)(C)[C@@H]2C(=O)O [Cloxacillin Sodium]
- inhibition at 100 µM: 9.79%

Compound: Oc1ccc(Cl)c2cccnc12 [Cloxiquine]
- inhibition at 100 µM: 8.06%

Compound: O=C(c1ccc(F)c(F)c1Nc1ccc(I)cc1F)N1CC(O)([C@@H]2CCCCN2)C1 [Cobimetinib (GDC-0973, RG7420)]
- inhibition at 100 µM: 5.28%

Compound: CC(=O)OCC(=O)[C@@]1(O)CC[C@H]2[C@@H]3CCC4=CC(=O)CC[C@]4(C)[C@H]3C(=O)C[C@@]21C [Cortisone acetate]
- inhibition at 100 µM: 10.7%

Compound: O=c1ccc2ccccc2o1 [Coumarin]
- inhibition at 100 µM: 5.25%

Compound: CC1(COc2ccc3c(c2)ncn3-c2ccc3cccc(N4CCC(N)CC4)c3n2)COC1 [Crenolanib (CP-868596)]
- inhibition at 100 µM: 0%

Compound: N#Cc1ccc(Oc2ccc3c(c2)COB3O)cc1 [Crisaborole (AN2728)]
- inhibition at 100 µM: 10%

Compound: C[C@@H](Oc1cc(-c2cnn(C3CCNCC3)c2)cnc1N)c1c(Cl)ccc(F)c1Cl [Crizotinib (PF-02341066)]
- inhibition at 100 µM: 6.7%

Compound: COc1cc(/C=C/C(=O)CC(=O)/C=C/c2ccc(O)c(OC)c2)ccc1O [Curcumin]
- inhibition at 100 µM: 1.88%

Compound: CC1CC(OC(=O)C(O)c2ccccc2)CC(C)(C)C1 (centres unmarked) [Cyclandelate]
- inhibition at 100 µM: 0%

Compound: C1CNCCNCCNCCN1 [Cyclen]
- inhibition at 100 µM: 0%

Compound: CN1CCN(C(c2ccccc2)c2ccccc2)CC1 [Cyclizine 2HCl]
- inhibition at 100 µM: 9.76%

Compound: CN(C)CCC=C1c2ccccc2C=Cc2ccccc21 [Cyclobenzaprine HCl]
- inhibition at 100 µM: 3.24%

Compound: CC(=O)Oc1ccc(C(=C2CCCCC2)c2ccc(OC(C)=O)cc2)cc1 [Cyclofenil]
- inhibition at 100 µM: 11.6%

Compound: CC(=O)O[C@]1(C(C)=O)CC[C@H]2[C@@H]3C=C(Cl)C4=CC(=O)[C@@H]5C[C@@H]5[C@]4(C)[C@H]3CC[C@@]21C [Cyproterone Acetate]
- inhibition at 100 µM: 0%

Compound: Nc1nc(N)nc(NC2CC2)n1 [Cyromazine]
- inhibition at 100 µM: 20.5%

Compound: NCCS [Cysteamine HCl]
- inhibition at 100 µM: 35.3%

Compound: Nc1ccn([C@@H]2O[C@H](CO)[C@@H](O)[C@@H]2O)c(=O)n1 [Cytarabine]
- inhibition at 100 µM: 0%

Compound: O=c1cccc2n1C[C@@H]1CNC[C@H]2C1 [Cytisine]
- inhibition at 100 µM: 0%

Compound: CC(C)(CO)[C@@H](O)C(=O)NCCCO [D panthenol]
- inhibition at 100 µM: 0%

Compound: N[C@@H]1CONC1=O [D-Cycloserine]
- inhibition at 100 µM: 6.32%

Compound: OC[C@@H](O)[C@@H](O)[C@H](O)[C@H](O)CO [D-Mannitol]
- inhibition at 100 µM: 0%

Compound: N[C@H](Cc1ccccc1)C(=O)O [D-Phenylalanine]
- inhibition at 100 µM: 4.94%

Compound: NC(=O)CC[C@@H](N)C(=O)O [D-glutamine]
- inhibition at 100 µM: 2.59%

Compound: CCCCCCOC(=O)NC(=N)c1ccc(NCc2nc3cc(C(=O)N(CCC(=O)OCC)c4ccccn4)ccc3n2C)cc1 [Dabigatran Etexilate]
- inhibition at 100 µM: 0%

Compound: CC(C)(C)c1nc(-c2cccc(NS(=O)(=O)c3c(F)cccc3F)c2F)c(-c2ccnc(N)n2)s1 [Dabrafenib (GSK2118436)]
- %inhibition: 34.76%

Compound: CC(C)(C)c1nc(-c2cccc(NS(=O)(=O)c3c(F)cccc3F)c2F)c(-c2ccnc(N)n2)s1 [Dabrafenib Mesylate]
- %inhibition: 0.5368%

Compound: CN(C)/N=N/c1[nH]cnc1C(N)=O [Dacarbazine]
- inhibition at 100 µM: 26.1%

Compound: COC(=O)N[C@H](C(=O)N1CCC[C@H]1c1ncc(-c2ccc(-c3ccc(-c4cnc([C@@H]5CCCN5C(=O)[C@@H](NC(=O)OC)C(C)C)[nH]4)cc3)cc2)[nH]1)C(C)C [Daclatasvir (BMS-790052)]
- inhibition at 100 µM: 1.65%

Compound: COc1cc2ncnc(Nc3ccc(F)c(Cl)c3)c2cc1NC(=O)/C=C/CN1CCCCC1 [Dacomitinib (PF299804, PF299)]
- inhibition at 100 µM: 3.46%

Compound: CN[C@H]1C(=O)N[C@@H]2Cc3ccc(cc3)Oc3cc4cc(c3O[C@@H]3O[C@H](C(=O)O)[C@@H](O)[C@H](O)[C@H]3NC(=O)CCCCCCCCC(C)C)Oc3ccc(cc3Cl)[C@@H](O)[C@@H]3NC(=O)[C@H](NC(=O)[C@@H]4NC(=O)[C@@H](NC2=O)c2cc(cc(O)c2Cl)Oc2cc1ccc2O)c1ccc(O)c(c1)-c1c(O[C@H]2O[C@H](CO)[C@@H](O)[C@H](O)[C@@H]2O)cc(O)cc1[C@@H](C(=O)NCCCN(C)C)NC3=O [Dalbavancin]
- inhibition at 100 µM: 23.4%

Compound: CN1C[C@@H]2C[C@H]1CN2c1cc2c(cc1F)c(=O)c(C(=O)O)cn2C1CC1 [Danofloxacin Mesylate]
- inhibition at 100 µM: 0%

Compound: O=C1c2cccc(O)c2C(=O)c2c(O)cccc21 [Danthron]
- inhibition at 100 µM: 0%

Compound: O=C1CN(/N=C/c2ccc(-c3ccc([N+](=O)[O-])cc3)o2)C(=O)N1 [Dantrolene sodium hemiheptahydrate]
- %inhibition: 2.991%

Compound: O=C1CN(/N=C/c2ccc(-c3ccc([N+](=O)[O-])cc3)o2)C(=O)N1 [Dantrolene sodium]
- %inhibition: 11.92%

Compound: CCOc1ccc(Cc2cc([C@@H]3O[C@H](CO)[C@@H](O)[C@H](O)[C@H]3O)ccc2Cl)cc1 [Dapagliflozin propanediol monohydrate]
- %inhibition: 0%

Compound: CCOc1ccc(Cc2cc([C@@H]3O[C@H](CO)[C@@H](O)[C@H](O)[C@H]3O)ccc2Cl)cc1 [Dapagliflozin]
- %inhibition: 1.439%

Compound: Cc1ccccc1N1CCN(CCc2nnc3n2CCCC3)CC1 [Dapiprazole Hydrochloride]
- inhibition at 100 µM: 12.7%

Compound: CN(C)[C@@H](CCOc1cccc2ccccc12)c1ccccc1 [Dapoxetine HCl]
- inhibition at 100 µM: 35.7%

Compound: Nc1ccc(S(=O)(=O)c2ccc(N)cc2)cc1 [Dapson]
- inhibition at 100 µM: 0%

Compound: CCCCCCCCCC(=O)N[C@@H](Cc1c[nH]c2ccccc12)C(=O)N[C@H](CC(N)=O)C(=O)N[C@@H](CC(=O)O)C(=O)N[C@@H]1C(=O)NCC(=O)N[C@@H](CCCN)C(=O)N[C@@H](CC(=O)O)C(=O)N[C@H](C)C(=O)N[C@@H](CC(=O)O)C(=O)NCC(=O)N[C@H](CO)C(=O)N[C@@H]([C@H](C)CC(=O)O)C(=O)N[C@@H](CC(=O)c2ccccc2N)C(=O)O[C@@H]1C [Daptomycin]
- inhibition at 100 µM: 1.7%

Compound: NC(=O)C(c1ccccc1)(c1ccccc1)[C@@H]1CCN(CCc2ccc3c(c2)CCO3)C1 [Darifenacin HBr]
- inhibition at 100 µM: 0%

Compound: CC(C)CN(C[C@@H](O)[C@H](Cc1ccccc1)NC(=O)O[C@H]1CO[C@H]2OCC[C@H]21)S(=O)(=O)c1ccc(N)cc1 [Darunavir Ethanolate]
- inhibition at 100 µM: 0%

Compound: COc1c(-c2ccc3cc(NS(C)(=O)=O)ccc3c2)cc(-n2ccc(=O)[nH]c2=O)cc1C(C)(C)C [Dasabuvir(ABT-333)]
- inhibition at 100 µM: 0.42%

Compound: COc1cccc2c1C(=O)c1c(O)c3c(c(O)c1C2=O)C[C@@](O)(C(C)=O)C[C@@H]3O[C@H]1C[C@H](N)[C@H](O)[C@H](C)O1 [Daunorubicin HCl]
- inhibition at 100 µM: 30.2%

Compound: C[N+](C)(C)CCCCCCCCCC[N+](C)(C)C [Decamethonium Bromide]
- inhibition at 100 µM: 0%

Compound: Nc1ncn([C@H]2C[C@H](O)[C@@H](CO)O2)c(=O)n1 [Decitabine]
- inhibition at 100 µM: 0%

Compound: CNC(=O)c1ccc(Nc2ncc(C(F)(F)F)c(NCc3nccnc3N(C)S(C)(=O)=O)n2)cc1 [Defactinib (VS-6063, PF-04554878)]
- inhibition at 100 µM: 0%

Compound: O=C(O)c1ccc(-n2nc(-c3ccccc3O)nc2-c2ccccc2O)cc1 [Deferasirox]
- inhibition at 100 µM: 16.8%

Compound: Cc1c(O)c(=O)ccn1C [Deferiprone]
- inhibition at 100 µM: 0%

Compound: CC(=O)OCC(=O)[C@@]12N=C(C)O[C@@H]1C[C@H]1[C@@H]3CCC4=CC(=O)C=C[C@]4(C)[C@H]3[C@@H](O)C[C@@]12C [Deflazacort]
- inhibition at 100 µM: 37.4%

Compound: C[C@H](CCC(=O)O)[C@H]1CC[C@H]2[C@@H]3C(=O)C[C@@H]4CC(=O)CC[C@]4(C)[C@H]3CC(=O)[C@]12C [Dehydrocholic acid]
- inhibition at 100 µM: 0%

Compound: CC(=O)O[C@H]1CC[C@@]2(C)C(=CC[C@@H]3[C@@H]2CC[C@]2(C)C(=O)CC[C@@H]32)C1 [Dehydroepiandrosterone acetate]
- inhibition at 100 µM: 15.8%

Compound: C[C@]1(COc2ccc(N3CCC(Oc4ccc(OC(F)(F)F)cc4)CC3)cc2)Cn2cc([N+](=O)[O-])nc2O1 [Delamanid]
- inhibition at 100 µM: 22.1%

Compound: CC(C)C[C@H](NC(=O)[C@@H](NC(=O)c1cccc(-c2ccccc2)n1)[C@@H](C)O)B(O)O [Delanzomib (CEP-18770)]
- inhibition at 100 µM: 0%

Compound: CCOC(=O)[C@H](CCc1ccccc1)N[C@@H](C)C(=O)N(CC(=O)O)C1Cc2ccccc2C1 [Delapril Hydrochloride]
- inhibition at 100 µM: 0.215%

Compound: CN(C)[C@@H]1C(O)=C(C(N)=O)C(=O)[C@@]2(O)C(O)=C3C(=O)c4c(O)ccc(Cl)c4[C@@H](O)[C@H]3C[C@@H]12 [Demeclocycline HCl]
- inhibition at 100 µM: 4.3%

Compound: C[C@H](CCC(=O)O)[C@H]1CC[C@H]2[C@@H]3CC[C@@H]4C[C@H](O)CC[C@]4(C)[C@H]3C[C@H](O)[C@]12C [Deoxycholic acid]
- inhibition at 100 µM: 0%
